The text below walks through data of US6482806B1, “Product of heat treatment of uronic acid, food, drink, or drug including the product” (Takara Shuzo Co., Ltd., priority 1996, dated 2002).

*1 amine or outer side, *2 acyl side, *3 side chain or, on linkers, in order; H or OH if unused. Where a SMILES comes first, the peptide text is derived from it. Bridges are numbered along the chain shown (N, C = ends). Roman numbers before positions name the chains, in order. [ ]: non-standard residue; d: D form. Actinocin(9to1) = Cc1c2oc3c(C)ccc(C(=O)[*:1])c3nc-2c(C(=O)[*:2])c(N)c1=O; NMeV = CN[C@H](C(=O)O)C(C)C; Sar = CNCC(=O)O

The subject of experiment [1] is human promyelocytic leukemia cells (HL-60) (ATCC CCL-240). Description: Apoptosis-inducing activity to HL-60 cells, microscope and trypan blue count (method of Example 7). Type of experiment: cell-based. As to conditions: 0.05 ml of aqueous solution (0.1 mg/ml) added, 16 hours. How it is done:
Thus, HL-60 (ATCC CCL-240) were incubated in an RPMI 1640 medium (manufactured by Nissui) containing 10% of fetal calf serum (manufactured by Gibco) treated at 56° C. for 30 minutes and then suspended in an RPMI 1640 medium to make the cell concentration 2.5×10^5 cells/4.5 ml.
To 4.5 ml of this suspension was added 0.5 ml of the above-mentioned heat-treated pectin solution and the mixture was incubated at 37° C. for 16 hours in the presence of 5% of carbon dioxide. For the sake of confirmation, the same incubation as above was conducted except that 0.05 ml of an aqueous solution (0.1 mg/ml) of actinomycin D (manufactured by Sigma) which was known as an apoptosis-inducing reagent and 0.45 ml of a physiological saline solution were used instead of the above-mentioned heat-treated pectin solution.
Incidentally, in the control where the cells to which 0.5 ml of a physiological saline solution was added were incubated, such phenomena were not observed.
Further, to the cell suspension was added twice as much by volume of a 0.4% aqueous solution of trypan blue and an observation was conducted under an optical microscope whereby trypan blue was excreted and colorless cells and blue-colored cells were counted as viable and dead cells, respectively.

Experiment [2] deals with Human promyelocytic leukemia cells HL-60 (ATCC CRL-1964). Description: Apoptosis induction in HL-60 cells, optical microscope (Example 1). Type of experiment: cell-based. As to conditions: 0.1 ml of aqueous solution (0.1 mg/ml) added, 16 hours. The procedure:
Human promyelocytic leukemia cells HL-60 (ATCC CRL-1964) were incubated in an RPMI 1640 medium (manufactured by Nissui) containing 10% of fetal calf serum (manufactured by Gibco) treated at 56° C. for 30 minutes and then suspended in an ASF 104 medium (manufactured by Ajinomoto) to make the cell concentration 5×10^5cells/9 ml.
To this suspension was added 1 ml of the heat-treated pectin solution and the mixture was incubated at 37° C. for 16 hours in the presence of 5% of carbon dioxide. For the sake of confirmation, the same incubation as above was conducted except that 0.1 ml of aqueous solution (0.1 mg/ml) of actinomycin D (manufactured by Sigma) which was known as an apoptosis-inducing reagent and 0.9 ml of a physiological saline solution were used instead of the above-mentioned pectin solution.
Incidentally, in the control where the cells to which 1 ml of physiological saline solution was added were incubated, such phenomena were not observed.

For `Cc1c2oc3c(C)ccc(C(=O)N[C@@H]4C(=O)N[C@H](C(C)C)C(=O)N5CCC[C@H]5C(=O)N(C)CC(=O)N(C)[C@@H](C(C)C)C(=O)O[C@@H]4C)c3nc-2c(C(=O)N[C@@H]2C(=O)N[C@H](C(C)C)C(=O)N3CCC[C@H]3C(=O)N(C)CC(=O)N(C)[C@@H](C(C)C)C(=O)O[C@@H]2C)c(N)c1=O` [actinomycin D] (I: T[dV]P[Sar][NMeV] / II: T[dV]P[Sar][NMeV]; ester I:1-I:C, II:1-II:C; linker I:N-II:N via Actinocin(9to1)), the “condensation of nuclei, contraction of cells and production of apoptotic body” value was “condensation of nuclei, contraction of cells and production of apoptotic body were confirmed” in experiment [1]; “condensation of nuclei, contraction of cells and production of apoptotic body were confirmed” in experiment [2].
